Blank lines part the entries; values can stand above or below the molecule they belong to.
System: 616215-338-R-J1-PDC tumor spheroids, viability
Test: Anticancer human tumor 616215-338-R-J1-PDC patient-derived colon adenocarcinoma cell line growth inhibition [GQUAD]
Settings: spheroids with HUVEC and MSC; for IC50: curve of first compound; for viability, T/C: stronger effect = lower value
Method in brief: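 Viability of tumor cells grown as complex spheroids with endothelial and stromal cells, exposed to drug combinations. Top concentration at or near clinical Cmax (else 10 microM), diluted in half-log increments.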

[1] = second compound 0.0316 µM, first compound 0.000999 µM
[2] = second compound 0.0316 µM, first compound 0.00316 µM
[3] = second compound 0.0316 µM, first compound 0.00999 µM
[4] = second compound 0.0316 µM, first compound 0.0316 µM
[5] = second compound 0.0316 µM, first compound 0.0999 µM
[6] = second compound 0.0316 µM, first compound 0.316 µM
[7] = second compound 0.1 µM, first compound 0.000999 µM
[8] = second compound 0.1 µM, first compound 0.00316 µM
[9] = second compound 0.1 µM, first compound 0.00999 µM
[10] = second compound 0.1 µM, first compound 0.0316 µM
[11] = second compound 0.1 µM, first compound 0.0999 µM
[12] = second compound 0.1 µM, first compound 0.316 µM
[13] = second compound 0.316 µM, first compound 0.000999 µM
[14] = second compound 0.316 µM, first compound 0.00316 µM
[15] = second compound 0.316 µM, first compound 0.00999 µM
[16] = second compound 0.316 µM, first compound 0.0316 µM
[17] = second compound 0.316 µM, first compound 0.0999 µM
[18] = second compound 0.316 µM, first compound 0.316 µM
[19] = second compound 1 µM, first compound 0.000999 µM
[20] = second compound 1 µM, first compound 0.00316 µM
[21] = second compound 1 µM, first compound 0.00999 µM
[22] = second compound 1 µM, first compound 0.0316 µM
[23] = second compound 1 µM, first compound 0.0999 µM
[24] = second compound 1 µM, first compound 0.316 µM
[25] = second compound 3.16 µM, first compound 0.000999 µM
[26] = second compound 3.16 µM, first compound 0.00316 µM
[27] = second compound 3.16 µM, first compound 0.00999 µM
[28] = second compound 3.16 µM, first compound 0.0316 µM
[29] = second compound 3.16 µM, first compound 0.0999 µM
[30] = second compound 3.16 µM, first compound 0.316 µM
[31] = second compound 10 µM, first compound 0.000999 µM
[32] = second compound 10 µM, first compound 0.00316 µM
[33] = second compound 10 µM, first compound 0.00999 µM
[34] = second compound 10 µM, first compound 0.0316 µM
[35] = second compound 10 µM, first compound 0.0999 µM
[36] = second compound 10 µM, first compound 0.316 µM
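Also: spheroids exposed to agents for 7 days before readout.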
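For viability, T/C in this document: percent viability relative to DMSO vehicle control wells taken as 100%.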

SMILES: Cn1ncnc1[C@H]1c2n[nH]c(=O)c3cc(F)cc(c23)N[C@@H]1c1ccc(F)cc1 + Cc1[nH]c2ccc(F)cc2c1-c1nc2c3cccnc3c3ncccc3c2[nH]1
IC50 (second compound 0.0316 µM): > 316 nM
IC50 (second compound 0.1 µM): > 316 nM
IC50 (second compound 0.316 µM): > 316 nM
IC50 (second compound 1 µM): > 316 nM
IC50 (second compound 3.16 µM): > 316 nM
IC50 (second compound 10 µM): > 316 nM
viability, T/C [1]: 104%
viability, T/C [2]: 98.2%
viability, T/C [3]: 97%
viability, T/C [4]: 92.5%
viability, T/C [5]: 97.1%
viability, T/C [6]: 94.7%
viability, T/C [7]: 106%
viability, T/C [8]: 89.1%
viability, T/C [9]: 94.2%
viability, T/C [10]: 102%
viability, T/C [11]: 105%
viability, T/C [12]: 87.4%
viability, T/C [13]: 92.7%
viability, T/C [14]: 103%
viability, T/C [15]: 92.9%
viability, T/C [16]: 103%
viability, T/C [17]: 83.3%
viability, T/C [18]: 95.3%
viability, T/C [19]: 100%
viability, T/C [20]: 95.7%
viability, T/C [21]: 91.2%
viability, T/C [22]: 104%
viability, T/C [23]: 96%
viability, T/C [24]: 95.6%
viability, T/C [25]: 101%
viability, T/C [26]: 97.3%
viability, T/C [27]: 85.6%
viability, T/C [28]: 93.2%
viability, T/C [29]: 106%
viability, T/C [30]: 87.3%
viability, T/C [31]: 93.3%
viability, T/C [32]: 95.4%
viability, T/C [33]: 88%
viability, T/C [34]: 78.5%
viability, T/C [35]: 116%
viability, T/C [36]: 78.6%

IC50 (second compound 0.0316 µM): 83.5 nM
IC50 (second compound 0.1 µM): 110 nM
IC50 (second compound 0.316 µM): < 0.999 nM
IC50 (second compound 1 µM): < 0.999 nM
IC50 (second compound 3.16 µM): < 0.999 nM
IC50 (second compound 10 µM): < 0.999 nM
SMILES: Cc1[nH]c2ccccc2c1CCNCc1ccc(/C=C/C(=O)NO)cc1 + Cc1cnc(CNC(=O)c2c(=O)c3ccc(N4CCCN(C)CC4)nc3n3c2sc2ccccc23)cn1
viability, T/C [1]: 98.6%
viability, T/C [2]: 99.3%
viability, T/C [3]: 101%
viability, T/C [4]: 105%
viability, T/C [5]: 40.5%
viability, T/C [6]: 24.4%
viability, T/C [7]: 59.6%
viability, T/C [8]: 90%
viability, T/C [9]: 60.8%
viability, T/C [10]: 66.6%
viability, T/C [11]: 54.4%
viability, T/C [12]: 6.92%
viability, T/C [13]: 40.8%
viability, T/C [14]: 38.2%
viability, T/C [15]: 38.2%
viability, T/C [16]: 47.9%
viability, T/C [17]: 39.1%
viability, T/C [18]: 0.77%
viability, T/C [19]: 36.5%
viability, T/C [20]: 23.8%
viability, T/C [21]: 28.2%
viability, T/C [22]: 23.2%
viability, T/C [23]: 13.7%
viability, T/C [24]: 0.06%
viability, T/C [25]: 27.9%
viability, T/C [26]: 21.8%
viability, T/C [27]: 24.9%
viability, T/C [28]: 26.6%
viability, T/C [29]: 0.75%
viability, T/C [30]: 0.11%
viability, T/C [31]: 24.7%
viability, T/C [32]: 34.2%
viability, T/C [33]: 15.5%
viability, T/C [34]: 17.7%
viability, T/C [35]: 0.25%
viability, T/C [36]: 0.21%

— PubChem BioAssay AID2060493 (Molecular Pharmacology Branch, DTP, NCI, 2025)
